# Laboratory results published in patent US20150080329A1, “PHARMACEUTICAL COMPOSITIONS COMPRISING DHA, EPA, AND/OR GLA AND AN ANTIBIOTIC AGENT AND METHODS OF USE THEREOF” (priority 2013, published 2015).
# Where two headings read alike, the source gives them in different places.
# Assays:
# Type in all cases: cell-based
# P. acnes NCTC737 = experiment: MIC and MBC determination by broth micro-dilution against P. acnes
# [1] = system: ten diverse isolates of S. aureus; experiment: MIC50 and MBC50 against ten diverse isolates of S. aureus; conditions: Staphylococcus aureus; for MIC50: concentration required to inhibit 50% of ten S. aureus isolates; for MBC: concentration required to kill 50% of ten S. aureus isolates
# S. aureus ATCC43300 = experiment: MIC and MBC determination by broth micro-dilution against S. aureus
# S. aureus = experiment: Checkerboard assay of interactions between LC-PUFAs and topical antimicrobial agents; conditions: n = 2, mean ± one standard deviation
# Description: Checkerboard assays were performed according to the standard protocol published by the American Society for Microbiology to investigate the existence of synergistic antimicrobial interactions between the three LC-PUFAs and two anti-acne agents (BPO and SA) against P. acnes. Further checkerboards were performed against S. aureus for BPO, SA and four antibiotics used to treat topical staphylococcal infections (FUS, MUP, NEO and POL) with these agents being assessed separately against each of the three LC-PUFAs. Doubling dilutions of each compound were prepared in TSA or SBB and dispensed to 96-well plates in the standard checkerboard pattern. […] Control wells were dispensed with medium supplemented with the greatest concentration of solvent used in any well, while negative control wells contained just medium. Inoculums were prepared to 1×10^7 CFU/mL as above. Each well (except for negative controls) was inoculated with 5 μL of bacterial suspension. Plates were incubated as for MIC determinations above and then the presence of bacterial growth was determined for each well according to the clarity of the medium and/or the presence of suspended colonies. The FIC for each well was determined for each interaction and the lowest FICs from duplicate checkerboard assays were used to calculate a mean value that permitted interpretation of the nature of interaction between each combination of compounds Using the pre-determined MIC values, checkerboard assays were performed to detect the interactions between the LC-PUFAs and the clinical antimicrobial drugs against the growth of S. aureus. The lowest fractional inhibitory concentration (FIC) on duplicate checkerboards was used to calculate a mean FIC for each interaction, and a mean FIC ≦0.5 was defined as synergy while a mean FIC ≧4 was defined as antagonism. Against S. aureus, none of the combinations gave a mean FIC ≧4, indicating no antagonism of efficacy between the LC-PUFAs and the clinical antimicrobial agents (Table 4). […] (Table 4)
# [2] = Cutibacterium acnes, P. acnes NCTC737, kills ≧99.9% of initial inoculum, LC-PUFAs (Table 1), read-out: MBC
# [3] = Cutibacterium acnes, P. acnes NCTC737, supplemented brucella broth, 48 h, LC-PUFAs (Table 1), read-out: MIC
# [4] = Staphylococcus aureus, S. aureus ATCC43300, Mueller-Hinton broth, 18-20 h, LC-PUFAs (Table 1), read-out: MIC
# [5] = Staphylococcus aureus, S. aureus ATCC43300, kills ≧99.9% of initial inoculum, LC-PUFAs (Table 1), read-out: MBC
# [6] = S. aureus, clinical antimicrobial agents (Table 3)
# [7] = P. acnes, clinical antimicrobial agents (Table 3)
MIC (P. acnes NCTC737; [3]),MIC50 [1],MIC (S. aureus ATCC43300; [4]),MIC (S. aureus ATCC43300; [6]),Molecule,MBC (P. acnes NCTC737; [2]),MBC [1],MBC (S. aureus ATCC43300; [5]),ΣFIC (S. aureus; in combination with DHA),ΣFIC (S. aureus; in combination with EPA),ΣFIC (S. aureus; in combination with GLA),MBC (S. aureus ATCC43300; [6]),other results
32 µg/mL,128 µg/mL,128 µg/mL,,"CC/C=C\C/C=C\C/C=C\C/C=C\C/C=C\C/C=C\CCC(=O)O [DHA, (4Z,7Z,10Z,13Z,16Z,19Z)-docosa-4,7,10,13,16,19-hexaenoic acid]",> 4100 µg/mL,256 µg/mL,128 µg/mL,,,,,
,,,0.25 µg/mL,CC(=O)O[C@H]1C[C@@]2(C)[C@@H](C[C@@H](O)[C@H]3[C@@]4(C)CC[C@@H](O)[C@@H](C)[C@@H]4CC[C@@]32C)/C1=C(\CCC=C(C)C)C(=O)O [FUS],,,,2.00 ± 0.00,1.13 ± 0.18,1.50 ± 0.71,8 µg/mL,
128 µg/mL,256 µg/mL,128 µg/mL,,"CC/C=C\C/C=C\C/C=C\C/C=C\C/C=C\CCCC(=O)O [EPA, all-cis-5,8,11,14,17-eicosapentaenoic acid]",> 4100 µg/mL,256 µg/mL,256 µg/mL,,,,,
,,,0.25 µg/mL,C/C(=C\C(=O)OCCCCCCCCC(=O)O)C[C@@H]1OC[C@H](C[C@@H]2O[C@H]2[C@@H](C)[C@H](C)O)[C@@H](O)[C@H]1O [MUP],,,,1.50 ± 0.00,2.00 ± 0.00,2.25 ± 0.35,16 µg/mL,
,,,32 µg/mL,"NC[C@@H]1O[C@H](O[C@H]2[C@@H](O)[C@H](O[C@@H]3[C@@H](O)[C@H](N)C[C@H](N)[C@H]3O[C@H]3O[C@H](CN)[C@@H](O)[C@H](O)[C@H]3N)O[C@@H]2CO)[C@H](N)[C@@H](O)[C@@H]1O [NEO, neomycin]",,,,0.56 ± 0.09,0.38 ± 0.00,0.19 ± 0.00,128 µg/mL,
,,,,"O=C(OOC(=O)c1ccccc1)c1ccccc1 [BPO, benzoyl peroxide]",,,,2.00 ± 0.00,1.00 ± 0.00,0.56 ± 0.09,,"MBC (P. acnes NCTC737; Cutibacterium acnes, NCTC737, P. acnes, clinical antimicrobial agents (Table 3), read-out: MBC): > 4100 µg/mL; MIC (P. acnes NCTC737; Cutibacterium acnes, NCTC737, P. acnes, clinical antimicrobial agents (Table 3), read-out: MIC): 64 µg/mL; MBC (S. aureus ATCC43300; Staphylococcus aureus, ATCC43300, S. aureus, clinical antimicrobial agents (Table 3), read-out: MBC): 512 µg/mL; MIC (S. aureus ATCC43300; Staphylococcus aureus, ATCC43300, S. aureus, clinical antimicrobial agents (Table 3), read-out: MIC): 512 µg/mL"
64 µg/mL,512 µg/mL,512 µg/mL,,"CCCCC/C=C\C/C=C\C/C=C\CCCCC(=O)O [GLA, all-cis-6,9,12-octadecatrienoic acid]",> 4100 µg/mL,512 µg/mL,512 µg/mL,,,,,
,,,1024 µg/mL,O=C(O)c1ccccc1O [SA],,,,1.25 ± 0.35,0.88 ± 0.18,0.88 ± 0.18,2048 µg/mL,MBC (P. acnes NCTC737; [7]): >4096 µg/mL; MIC (P. acnes NCTC737; [7]): 64 µg/mL

Molecule,MIC (P. acnes NCTC737; [3]),MIC50 [1],MIC (S. aureus ATCC43300; [4]),MIC (S. aureus ATCC43300; [6]),MBC (P. acnes NCTC737; [2]),MBC [1],MBC (S. aureus ATCC43300; [5]),ΣFIC (S. aureus; in combination with DHA),ΣFIC (S. aureus; in combination with EPA),ΣFIC (S. aureus; in combination with GLA),MBC (S. aureus ATCC43300; [6]),other results
polymyxin B,,,,16 µg/mL,,,,2.00 ± 0.00,2.00 ± 0.00,1.06 ± 0.62,128 µg/mL,
